Data taken from patent publication US12514843B2, “Biofilm disruption” (QBIOTICS PTY LTD, priority 2019, dated 2026).
≈ marks a conversion by molar mass, not a printed value.

How the values were obtained:
[1] = test system: A. baumannii 7789 biofilm; assay: Disruption of established in vitro biofilm, CLSM with COMSTAT image analysis; type: cell-based, Acinetobacter baumannii; settings: 256 μg/mL; for DEAD/LIVE bacterial ratio: vs untreated and ethanol blank controls; for biofilm bio-volume (COMSTAT): vs untreated and ethanol blank controls (p<0.05)
Description: (§1) Biofilms of E. coli IR57 were grown on 96-well glass-bottomed plates in Mueller-Hinton (MH) broth for 24 h, before 50% of the supernatant was replaced with fresh MH broth with or without the epoxytiglienone compound added to a final concentration of 256 μg/mL (vehicle is ethanol). An ethanol equivalent blank was used as a further control treatment. The plates were then incubated for a further 24 h at 37° C.
(§2) Confocal laser scanning microscopy (CLSM) was then used to image the biofilms, following staining with Live/Dead® Baclight stain with phosphate buffered saline (PBS) added to each well before imaging with z-stack CLSM. The resultant images were analysed by COMSTAT software to produce measurements of (i) biofilm biomass volume or bio-volume (μm^3/μm^2) and (ii) DEAD/LIVE bacterial ratio.
(§3) The effects of the epoxytiglienones (Compounds 1, 4, 6 and the comparator compound CC-1) on disruption of established in vitro biofilms were further investigated with two other species of Gram-negative bacteria (Pseudomonas aeruginosa PA01 and Acinetobacter baumannii 7789) using methods described in Example 2 above. Cell permeabilisation following Compound 1, 4 and 6 treatment was also determined using SYTOX™ Green Nucleic Acid Stain with untreated control and positive control of 70% isopropanol.

[2] = test system: P. aeruginosa PAO1 biofilm; assay: as above; type: cell-based, Pseudomonas aeruginosa; settings: 256 μg/mL, vs untreated and ethanol blank controls
Description: as §1, §2, §3

Streptococcus pyogenes = assay: Minimum inhibitory concentration (MIC) assay, planktonic culture, broth dilution; type: cell-based; design: key: C = confluent growth, i.e. no MIC could be determined at any concentration tested; settings: S. pyogenes, planktonic culture in Mueller-Hinton broth; mean of three replicate tests
Description: (§4) The effects of five epoxytiglienones (Compounds 1, 2, 3, 4 and 6) and two comparator comparator compounds (epoxytiglienones having longer carbon chains at the C12 position) on six human pathogenic bacteria (two Gram-positive and four Gram-negative species) were measured in conventional planktonic culture systems. A minimum inhibitory concentrations (MIC) assay (the standard assay employed to define and quantify antibiotic activity) was performed to determine antibacterial activity for each epoxytiglienone against each bacterial strain.
(§5) The Gram-positive bacteria used in this study were methicillin resistant Staphylococcus aureus (MRSA) 1004A and Streptococcus pyogenes. The Gram-negative bacteria used in this study were Pseudomonas aeruginosa PAO1, Escherichia coli IR57 (V7), Klebsiella pneumoniae, and Acinetobacter baumannii 7789 (V19). MIC assays were performed on planktonic cultures of each bacteria grown in Mueller-Hinton broth using the standard broth dilution method described by Jorgensen et al. (1999) using epoxytiglienones dissolved in ethanol.

[3] = test system: Escherichia coli IR57 (V7); assay: as above; type: cell-based; design: key: C = confluent growth, i.e. no MIC could be determined at any concentration tested; settings: E. coli, planktonic culture in Mueller-Hinton broth; mean of three replicate tests
Description: as §4, §5

[4] = test system: Pseudomonas aeruginosa PAO1; assay: as above; type: cell-based; design: key: C = confluent growth, i.e. no MIC could be determined at any concentration tested; settings: P. aeruginosa, planktonic culture in Mueller-Hinton broth; mean of three replicate tests
Description: as §4, §5

[5] = test system: Acinetobacter baumannii 7789 (V19); assay: as above; type: cell-based; design: key: C = confluent growth, i.e. no MIC could be determined at any concentration tested; settings: A. baumannii, planktonic culture in Mueller-Hinton broth; mean of three replicate tests
Description: as §4, §5

Klebsiella pneumoniae = assay: as above; type: cell-based; design: key: C = confluent growth, i.e. no MIC could be determined at any concentration tested; settings: K. pneumoniae, planktonic culture in Mueller-Hinton broth; mean of three replicate tests
Description: as §4, §5

[6] = test system: methicillin resistant Staphylococcus aureus (MRSA) 1004A; assay: as above; type: cell-based; design: key: C = confluent growth, i.e. no MIC could be determined at any concentration tested; settings: S. aureus, planktonic culture in Mueller-Hinton broth; mean of three replicate tests
Description: as §4, §5

E. coli IR57 biofilm [7] = assay: Multiple particle tracking (MPT) of 200 nm FluoSpheres in established biofilm; type: cell-based, Escherichia coli; settings: for Diffusion coefficient (Deff) ± standard deviation: 200 nm negatively-charged carboxylate-modified FluoSpheres in E. coli IR57 biofilms, 256 μg/mL, 24 h treatment; for mean squared displacement (MSD) of FluoSphere particles / biofilm creep compliance: E. coli IR57 biofilm, vs untreated and ethanol blank controls; for mean squared displacement (MSD) of FluoSphere particles: 200 nm FluoSpheres; for biofilm creep compliance: derived from MSD vs lag time
Description: The effect of three epoxytiglienones (Compounds 1, 4 and 6) on the assembly and permeability of established biofilms of E. coli was assessed using multiple particle tracking (MPT). MPT is a recently described technique, allowing simultaneous tracking of micron-size particles through biofilms using microscopy, from which the diffusion-based parameters of embedded particles within the extracellular polymeric matrix (EPS) of the biofilm can be determined (Cao et al. 2016). MPT measurements also allows for calculation of micro-rheological properties of the biofilm structure following treatment with test compounds.
E. coli biofilms were established and epoxytiglienone and control treatments applied as described in Example 2 above. Twenty-four hours after application of the treatments, the biofilms were stained with SYTO9® and 0.0025% of negatively-charged, carboxylate-modified FluoSpheres® (200 nm) added onto the biofilms and incubated for a further 2 hours. FluoSphere® particle movements within the biofilms were then captured on video using epifluorescence microscopy with a high frame-rate camera (33 ms). Particle trajectories were tracked using ImageJ softwaren (Mosaic) before calculation of three parameters of the 200 nm FluoSphere® particles: (i) ensemble diffusion coefficient (Deff), (ii) ensemble mean squared displacement (MSD) and (iii) creep compliance (a measure of resistance to mechanical deformation derived from the MSD vs lag time). Each treatment was replicated three times.

E. coli IR57 biofilm [8] = assay: Disruption of established in vitro biofilm, CLSM with COMSTAT image analysis; type: cell-based, Escherichia coli; settings: E. coli IR57 24 h biofilm, 256 μg/mL, further 24 h; vs untreated and ethanol blank controls
Description: The effects of administration of Compounds 1, 4 and 6 and comparator compound CC-1 on disruption of established in vitro biofilms of Escherichia coli (E. coli) was investigated using methods described in Powell et al. (2018).
as §1, §2

Compound	DEAD/LIVE bacterial ratio [1]	biofilm bio-volume (COMSTAT) [1]	DEAD/LIVE bacterial ratio [2]	Minimum inhibitory concentrations (Streptococcus pyogenes)	Minimum inhibitory concentrations [3]	Minimum inhibitory concentrations [4]	Minimum inhibitory concentrations [5]	Minimum inhibitory concentrations (Klebsiella pneumoniae)	Minimum inhibitory concentrations [6]	Diffusion coefficient (Deff) ± standard deviation (E. coli IR57 biofilm [7])	mean squared displacement (MSD) of FluoSphere particles (E. coli IR57 biofilm [7])	biofilm creep compliance (E. coli IR57 biofilm [7])	biofilm bio-volume (COMSTAT) (E. coli IR57 biofilm [8])	distribution and density of bacteria in the biofilm (CLSM) (E. coli IR57 biofilm [8])
C/C=C(\C)C(=O)O[C@@H]1[C@@H](C)[C@@]2(O)[C@H]([C@@H]3C(C)(C)[C@]13OC(=O)[C@@H](C)CC)[C@@H]1O[C@]1(CO)[C@@H](O)[C@]1(O)C(=O)C(C)=C[C@H]12 [Compound 1, 12-tigloyl-13-(2-methylbutanoyl)-6,7-epoxy-4,5,9,12,13,20-hexahydroxy-1-tiglien-3-one]	no significant differences	significant reductions	no significant differences	128 µg/mL (≈ 227 µM)	C	C	C	C	256 µg/mL (≈ 455 µM)	0.6018 ± 0.0901 cm^2 · s^−1 × 10^−9	substantially higher	increased	Significant decreases	significant changes
CCC(=O)OC1C(C)C2(O)C(C3OC3(CO)C(O)C3(O)C(=O)C(C)=CC32)C2C(C)(C)C12OC(=O)C(C)CC (centres unmarked) [Compound 6, 12-propanoyl-13-(2-methylbutanoyl)-6,7-epoxy-4,5,9,12,13,20-hexahydroxy-1-tiglien-3-one]	no significant differences		no significant differences	C	C	C	C	C	C	0.1607 ± 0.0104 cm^2 · s^−1 × 10^−9	substantially higher	increased	Decreases in bio-volume were evident	significant changes
CCCCCC(=O)OC1C(C)C2(O)C(C3OC3(CO)C(O)C3(O)C(=O)C(C)=CC32)C2C(C)(C)C12OC(=O)C(C)CC (centres unmarked) [Compound 3, 12-hexanoyl-13-(2-methylbutanoyl)-6,7-epoxy-4,5,9,12,13,20-hexahydroxy-1-tiglien-3-one]				128 µg/mL (≈ 221 µM)	C	C	C	C	256 µg/mL (≈ 442 µM)					
CCCCCC=CC=CC(=O)OC1C(C)C2(O)C(C3OC3(CO)C(O)C3(O)C(=O)C(C)=CC32)C2C(C)(C)C12OC(=O)C(C)CC (centres unmarked) [CC-1, 12-(2,4-decadienoyl)-13-(2-methylbutanoyl)-6,7-epoxy-4,5,9,12,13,20-hexahydroxy-1-tiglien-3-one, reference compound]	no significant differences	significant reductions	no significant differences	8 µg/mL (≈ 12.7 µM)	C	C	C	C	8 µg/mL (≈ 12.7 µM)				no apparent effect	no apparent effect
CCC(C)C(=O)OC1C(C)C2(O)C(C3OC3(CO)C(O)C3(O)C(=O)C(C)=CC32)C2C(C)(C)C12OC(=O)C(C)CC (centres unmarked) [Compound 2, 12,13-di-(2-methylbutanoyl)-6,7-epoxy-4,5,9,12,13,20-hexahydroxy-1-tiglien-3-one]				128 µg/mL (≈ 227 µM)	C	C	C	C	256 µg/mL (≈ 453 µM)					
CCCCCC=CC=CC(=O)O[C@@H]1C(C)[C@]2(O)C(C3OC3(CO)[C@H](O)[C@@]3(O)C(=O)C(C)=CC23)C2C(C)(C)[C@]21OC(=O)C(C)CC (stereo partly drawn) [CC-2, 12R-(2,4-decadienoyl)-13R-(2-methylbutanoyl)-6,7-epoxy-4R,5R,9S,12R,13R,20-hexahydroxy-1-tiglien-3-one, reference compound]				8 µg/mL (≈ 12.7 µM)	C	C	C	C	16 µg/mL (≈ 25.4 µM)					
